Test results published in patent publication US8609658B2, “N,N-dialkylalkylenyl esters, compositions thereof, and methods for use thereof” (Allergan, Inc., priority 2011, dated 2013).

Assay: Aqueous stability in formulation vehicle (% substrate remaining)
Type: physicochemical
Details: 0.0005% w/w (5 ppm) compound in aqueous formulation vehicle, pH 6

Row | SMILES | % Substrate Remaining (7 days/25° C.) [%] | % Substrate Remaining (7 days/40° C.) [%] | % Substrate Remaining (28 days/25° C.) [%]
1 | CCN(CC)CCCC(C)OC(=O)COc1cccc(NC(=O)c2cc(-c3cccc(F)c3)ccc2F)c1 (stereo not drawn) | 101.2 | 92 | 94.4
2 | CC[N+](C)(CC)CCCOC(=O)COc1cccc(NC(=O)c2cc(-c3cccc(F)c3)ccc2F)c1 | 95.5 | 49.2 | 82.6
3 | CN(C)c1ccc(OC(=O)COc2cccc(NC(=O)c3cc(-c4cccc(F)c4)ccc3F)c2)cc1 | 92 | 78.8 | 78
4 | O=C(COc1cccc(NC(=O)c2cc(-c3cccc(F)c3)ccc2F)c1)Oc1ccc(CN2CCOCC2)cc1 | 61.5 | 18 | 12
